Measurements taken from paper PMC12191924, “A new naphthalene-based fluorogenic substrate for cytochrome P450 4A11” (Biochemical Journal, 2025).
Like-named read-outs stand apart in the source and are kept apart here.

Columns and labels:
[1] = molecular target: T1, pooled human liver microsome (HLM) preparations (Homo sapiens, UniProt Q02928); assay: Inhibition of MONACRA demethylation in pooled HLM preparations; assay type: biochemical; settings: 150 µM MONACRA
T1 sequence (Q02928 5-519): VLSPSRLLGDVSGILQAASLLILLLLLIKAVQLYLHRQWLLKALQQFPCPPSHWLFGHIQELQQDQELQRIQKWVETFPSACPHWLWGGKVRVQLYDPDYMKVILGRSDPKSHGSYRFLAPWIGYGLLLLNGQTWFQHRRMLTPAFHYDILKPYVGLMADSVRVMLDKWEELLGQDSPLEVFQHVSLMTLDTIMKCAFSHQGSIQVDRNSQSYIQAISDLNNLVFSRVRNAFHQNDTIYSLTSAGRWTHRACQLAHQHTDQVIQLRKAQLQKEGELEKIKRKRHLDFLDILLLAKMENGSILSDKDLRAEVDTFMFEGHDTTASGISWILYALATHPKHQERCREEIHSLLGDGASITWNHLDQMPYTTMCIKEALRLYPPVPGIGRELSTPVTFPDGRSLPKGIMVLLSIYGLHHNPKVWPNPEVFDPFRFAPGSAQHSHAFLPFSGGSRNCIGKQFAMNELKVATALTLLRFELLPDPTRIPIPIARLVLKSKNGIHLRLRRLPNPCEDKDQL
From the text: (§1) To probe the role of CYP4A11 and CYP1A2 in MONACRA metabolism by HLM, we employed inhibitory analysis with the use of epalrestat as a specific inhibitor of CYP4A11 [22] and fluvoxamine as a CYP1A2 inhibitor [37]. We explored the effect of the inhibitors on the activity of recombinant CYP1A2 and CYP4A11, as well as the activity of six different preparations of HLM (preparation X347 was not available at the time of the study).
(§2) Figure 12: Effect of epalrestat (A) and fluvoxamine (B) on 3-(6-methoxynaphthalen-2-yl)acrylic acid (MONACRA) demethylation by recombinant CYP1A2 (black) and CYP4A11 (red) and three pooled human liver microsome (HLM) preparations: X263 (green), DNJ (blue), and WGP (brown). Solid lines represent the approximation of the datasets by eqn 1 (in the instances of pure inhibition) or a combination of two hyperbolic equations (in the cases of activation or combined inhibition and activation). All experiments were carried out at 150 µM MONACRA concentration. The datasets shown in the graphs represent the averages of the results of four (fluvoxamine) or two (epalrestat) individual experiments.
This study used preparations of pooled HLMs from 50, 150, or 200 donors (mixed gender). The preparations CDN, DNJ, and WGP were INVITROCYP 150-Donor Human Liver Microsomes obtained from BioIVT Corporation (Westbury, NY). Lot EGW is INVITROCYP M-Class 50-Donor HLM procured from the same company. Lots 1,910,096 and 1,210,347 were XTreme 200 Mixed Gender HLM (200 donors) purchased from XenoTech LLC (Kansas City, KS), currently a part of BioIVT. Lot 2,110,263 corresponds to mixed gender HLM from 50 donors from the same company. These lots are referred to herein as X096, X347, and X263, respectively. The supplier of the HLM preparations used in our studies, BioIVT Corporation, has declared to adhere to the regulations of the Department of Health and Human Services for the protection of human subjects (45 CFR §46.116 and §46.117) and Good Clinical Practice, (ICH E6) in obtaining the samples of human tissues used for producing the preparations of human subcellular fractions available from these companies.
(§3) Inhibition of MONACRA metabolism by epalrestat and fluvoxamine was studied using the high-throughput assay described above. The substrate concentration was kept constant at 150 µM. Each column of the well plate comprised eight wells with different concentrations of inhibitor complemented with two wells with no inhibitor added (100% activity samples) and two wells with no inhibitor and no NADPH added (‘blank’ samples). […] The fractional inhibition at each inhibitor concentration was determined from the ratio of the reaction rate in the presence of an inhibitor to the rate observed at no inhibitor added. The resulting dependence of the fractional inhibition on the inhibitor concentration was fitted to a four-parameter logistic equation (Hill equation):
(§4) (1) FI=v0−vi/v0=Amax[I]^N/IC50+[I]^N
In this equation, F I and vi are the fractional inhibition and the reaction velocity observed at inhibitor concentration [I], v0 is the reaction rate at no inhibitor added, and A max is the maximal amplitude of inhibition. IC 50 is the concentration of inhibitor at which the inhibition reaches 50% of its maximal amplitude (A max), and N is the Hill coefficient.

CYP4A11 = molecular target: T2, CYP4A11 (Homo sapiens, UniProt Q02928); assay: Inhibition of MONACRA demethylation by recombinant CYP4A11; assay type: biochemical; parameters: purchased Gentest (Huntsville, AL), now a part of Discovery Life Sciences lot 2402280; host or cells: insect cells, recombinant baculovirus; settings: recombinant CYP4A11 Supersomes; 150 µM MONACRA
T2 sequence (Q02928 5-519): T1 sequence (Q02928 5-519)
From the text: as §1, §2
as §3, with “The” for “The fractional inhibition at each inhibitor concentration was determined from the ratio of the reaction rate in the presence of an inhibitor to the rate observed at no inhibitor added. The”
as §4
IC 50 is the concentration of inhibitor at which the inhibition reaches 50% of its maximal amplitude (A max), and N is the Hill coefficient.

[2] = all studied HLM samples (six preparations)

Compound	Inhibition (amplitude) ([1]; HLM sample CDN)	IC50 ([1]; HLM sample CDN, unit not given (µM))	Inhibition (amplitude) ([1]; HLM sample DNJ)	IC50 ([1]; HLM sample DNJ, unit not given (µM))	Inhibition (amplitude) ([1]; HLM sample EGW)	IC50 ([1]; HLM sample EGW, unit not given (µM))	Inhibition (amplitude) ([1]; HLM sample WGP)	IC50 ([1]; HLM sample WGP, unit not given (µM))	Inhibition (amplitude) ([1]; HLM sample X096)	IC50 ([1]; HLM sample X096, unit not given (µM))	Inhibition (amplitude) ([1]; HLM sample X263)	IC50 ([1]; HLM sample X263, unit not given (µM))	IC50 [1, 2]	amplitude of inhibition [1, 2]	IC50 (CYP4A11)	effect on MONACRA demethylation by CYP4A11 (CYP4A11)	amplitude of inhibition ([1]; HLM preparation DNJ)	IC50 ([1]; HLM preparation DNJ, read-out: IC 50)	effect on MONACRA metabolism in HLM ([1]; HLM preparations CDN, WGP and X096)	effect on MONACRA metabolism in HLM ([1]; HLM preparations EGW and X263)
CC(/C=C1\SC(=S)N(CC(=O)O)C1=O)=C\c1ccccc1 [epalrestat]	99.7±0.6%	1.48 ± 0.21 µM	93.0±2.3%	2.02 ± 1.7 µM	99.8±0.4%	2.15 ± 0.52 µM	97.1±5.7%	2.14 ± 0.94 µM	93.9±0.7%	5.36 ± 0.13 µM	100.0%	5.09 ± 1.04 µM	3 ± 1.4 µM	97.2±2.5	1300 nM	complete inhibition				
COCCCC/C(=N\OCCN)c1ccc(C(F)(F)F)cc1 [fluvoxamine]																pronounced activation	69%	14 µM	combination of an inhibitory effect at lower concentrations with an activation that manifests itself as the concentration increases	activation similar to that observed in CYP4A11 Supersomes
